Reference: patent US20200017495A1, “NOVEL HETEROCYCLIC COMPOUNDS AND THEIR USE IN PREVENTING OR TREATING BACTERIAL INFECTIONS” (priority 2017, published 2020)
Read-outs that look alike come from different tables or passages of the source.

Experiments:
[1] = system: Klebsiella pneumoniae (KPN) isolates; assay: MIC of compounds alone and combined with antibacterials, broth microdilution (CLSI); assay type: cell-based; details: Klebsiella pneumoniae, read-out: MIC
Outline: (§1)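 First, log-phase suspensions are brought to 5.10^5 CFU/mL final in ca-MHB; plates then incubate 16-20 h at 35° C in air. Growth is judged visually, giving the compound MIC alone and the antibacterial MIC at each compound concentration.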

[2] = system: Escherichia coli (ECO) isolates; assay: as above; assay type: cell-based; details: Escherichia coli, read-out: MIC
Outline: as §1

SMILES: O=C1N2CC(c3ncco3)=CC(C2)N1OC(F)(F)C(=O)[O-].[Li+] (centres unmarked) [AF2]
- MIC ([1]; BAA1898, KPN BAA-1898, alone): 8 µg/mL
- MIC ([1]; KPN 6299, alone): 16 µg/mL
- MIC ([1]; KPN 110376, alone): 8 µg/mL
- MIC ([1]; KPN 121206, alone): 16 µg/mL
- MIC ([1]; KPN 131119, alone): 8 µg/mL
- MIC ([1]; KPN 140513, alone): 32 µg/mL
- MIC ([1]; KPN 160143, alone): 8 µg/mL
- MIC ([1]; KPN 190128, alone): 16 µg/mL
- MIC ([1]; KPN 190270, alone): 16 µg/mL
- MIC ([1]; KPN 190425, alone): 16 µg/mL
- MIC ([1]; KPN 190551, alone): 4 µg/mL
- MIC ([1]; KPN 200047, alone): 4 µg/mL
- MIC ([1]; KPN 200327, alone): 4 µg/mL
- MIC ([1]; KPN 260251, alone): 16 µg/mL
- MIC ([1]; KPN 260252, alone): 16 µg/mL
- MIC ([1]; KPN 260376, alone): 4 µg/mL
- MIC ([1]; KPN 270077, alone): > 32 µg/mL
- MIC ([1]; KPN 700603, alone): 32 µg/mL
- MIC ([1]; KPN ARA, alone): 8 µg/mL
- MIC ([1]; KPN LIB, alone): 8 µg/mL
- MIC ([1]; KPN UFR22_O, alone): 8 µg/mL
- MIC ([1]; KPN UFR23, alone): 16 µg/mL
- MIC ([1]; KPN UFR24, alone): 16 µg/mL
- MIC ([1]; KPN UFR25, alone): 8 µg/mL
- MIC ([1]; KPN UFR27, alone): 16 µg/mL
- MIC ([1]; KPN UFR43, alone): 8 µg/mL
- MIC ([1]; KPN UFR46, alone): 32 µg/mL
- MIC ([1]; KPN UFR53, alone): 16 µg/mL
- MIC ([1]; KPN UFR68, alone): 16 µg/mL
- MIC ([1]; KPN UFR76, alone): > 32 µg/mL
- MIC ([1]; KPN UFR77, alone): 8 µg/mL
- MIC ([1]; KPN UFR78, alone): 32 µg/mL
- MIC ([1]; KPN UFR79, alone): 16 µg/mL
- MIC ([1]; KPN UFR80, alone): 16 µg/mL
- MIC ([1]; KPN UFR81, alone): 16 µg/mL
- MIC ([1]; KPN UFR215, alone): 32 µg/mL
- MIC ([1]; KPN UFR216, alone): 8 µg/mL
- MIC ([1]; KPN UFR217, alone): 8 µg/mL
- MIC ([1]; KPN UFR218, alone): 4 µg/mL
- MIC ([1]; KPN UFR222, alone): 8 µg/mL
- MIC ([1]; KPN UFR227O, alone): > 32 µg/mL
- MIC ([1]; strain KPN 140347, compound alone): 32 µg/mL
- MIC ([1]; strain KPN UFR162, compound alone): 16 µg/mL
- MIC ([1]; strain KPN UFR163, compound alone): 16 µg/mL
- MIC ([1]; strain KPN UFR164, compound alone): 16 µg/mL
- MIC ([1]; strain KPN UFR165, compound alone): 16 µg/mL
- MIC ([1]; strain KPN UFR166, compound alone): 32 µg/mL
- MIC ([1]; strain KPN UFR167, compound alone): > 32 µg/mL
- MIC ([1]; strain KPN UFR168, compound alone): 16 µg/mL
- MIC ([1]; strain KPN UFR169, compound alone): > 32 µg/mL
- MIC ([1]; strain KPN UFR170, compound alone): 16 µg/mL
- MIC ([1]; strain KPN UFR171, compound alone): 8 µg/mL
- MIC ([1]; strain KPN UFR172, compound alone): 8 µg/mL
- MIC ([1]; strain KPN UFR229O, compound alone): 16 µg/mL
- MIC ([2]; ECO 4133, alone): 8 µg/mL
- MIC ([2]; ECO 5302, alone): 4 µg/mL
- MIC ([2]; ECO 131119, alone): 4 µg/mL
- MIC ([2]; ECO 180070, alone): 8 µg/mL
- MIC ([2]; ECO 190314, alone): 8 µg/mL
- MIC ([2]; ECO 190317, alone): 4 µg/mL
- MIC ([2]; ECO 190457, alone): 4 µg/mL
- MIC ([2]; ECO 190549, alone): 4 µg/mL
- MIC ([2]; ECO 200159, alone): 4 µg/mL
- MIC ([2]; ECO 200259, alone): 4 µg/mL
- MIC ([2]; ECO 200344, alone): 8 µg/mL
- MIC ([2]; ECO 260096, alone): 16 µg/mL
- MIC ([2]; ECO 260304, alone): 4 µg/mL
- MIC ([2]; ECO 260508, alone): 8 µg/mL
- MIC ([2]; ECO (strain number on grid row 356, not shown), alone): 8 µg/mL
- MIC ([2]; ECO UFR17, alone): 16 µg/mL
- MIC ([2]; ECO UFR18, alone): 8 µg/mL
- MIC ([2]; ECO UFR19, alone): 8 µg/mL
- MIC ([2]; ECO UFR32, alone): 8 µg/mL
- MIC ([2]; ECO UFR39, alone): 8 µg/mL
- MIC ([2]; ECO UFR41, alone): 8 µg/mL
- MIC ([2]; ECO UFR45, alone): 4 µg/mL
- MIC ([2]; ECO UFR52, alone): 32 µg/mL
- MIC ([2]; ECO UFR61O, alone): 8 µg/mL
- MIC ([2]; ECO UFR62, alone): 8 µg/mL
- MIC ([2]; ECO UFR74, alone): 8 µg/mL
- MIC ([2]; ECO UFR86, alone): 16 µg/mL
- MIC ([2]; ECO UFR174, alone): 2 µg/mL
- MIC ([2]; ECO UFR176, alone): 8 µg/mL
- MIC ([2]; ECO UFR184, alone): 4 µg/mL
- MIC ([2]; ECO UFR208, alone): 16 µg/mL
- MIC ([2]; ECO UFR209, alone): 8 µg/mL
- MIC ([2]; ECO UFR210, alone): 4 µg/mL
- MIC ([2]; ECO UFR211, alone): 4 µg/mL
- MIC ([2]; ECO UFR212, alone): 4 µg/mL
- MIC ([2]; ECO URF20, alone): 4 µg/mL
- MIC ([2]; strain ECO UFR177, compound alone): 4 µg/mL
- MIC ([2]; strain ECO UFR178, compound alone): 8 µg/mL
- MIC ([2]; strain ECO UFR179, compound alone): 4 µg/mL
- MIC ([2]; strain ECO UFR180, compound alone): 4 µg/mL
- MIC ([2]; strain ECO UFR181, compound alone): 16 µg/mL
- MIC ([2]; strain ECO UFR182, compound alone): 8 µg/mL
- MIC ([2]; strain ECO UFR183, compound alone): 32 µg/mL
- MIC ([2]; strain ECO UFR186, compound alone): 8 µg/mL
- MIC ([2]; strain ECO UFR187, compound alone): 16 µg/mL
- MIC ([2]; strain ECO UFR189, compound alone): 4 µg/mL
- MIC ([2]; strain ECO UFR190, compound alone): 8 µg/mL
- MIC ([2]; strain ECO UFR191, compound alone): 8 µg/mL
- MIC ([2]; strain ECO UFR204, compound alone): 8 µg/mL
- MIC ([2]; strain ECO UFR205, compound alone): 8 µg/mL
- MIC ([2]; strain ECO UFR206, compound alone): 16 µg/mL
- MIC ([2]; strain ECO UFR252GO, compound alone): 8 µg/mL
- MIC ([2]; strain ECO UFR255, compound alone): 4 µg/mL
